According to the CheMixHub viscosity set:
Where “and” joins values, the source holds several entries; their conditions need not be identical. Identical values can stand only once.

Assay: xn = mol fraction of the nth substance listed

CCC(C)O (centres undefined) + O
Settings | viscosity [mPa·s]
293.15 K, 100 kPa, x1 = 0.58 | 3.807
296 K, 101 kPa, x2 = 0.1 | 3.008
296 K, 101 kPa, x2 = 0.68 | 3.67
297 K, 101 kPa, x2 = 0.3 | 2.923
297 K, 101 kPa, x2 = 0.4 | 3.074
297 K, 101 kPa, x2 = 0.5 | 3.242
297 K, 101 kPa, x2 = 0.6 | 3.416
303 K, 101 kPa, x1 = 0.01 | 0.9465
303 K, 101 kPa, x2 = 0.1 | 2.363
303 K, 101 kPa, x2 = 0.3 | 2.38
303 K, 101 kPa, x2 = 0.4 | 2.495
303 K, 101 kPa, x2 = 0.5 | 2.625
303 K, 101 kPa, x2 = 0.6 | 2.759
303 K, 101 kPa, x2 = 0.68 | 2.853
303 K, 101 kPa, x2 = 0.98 | 1.103
304 K, 101 kPa, x2 = 0.97 | 1.229
305 K, 101 kPa, x2 = 0.2 | 2.185
313 K, 101 kPa, x1 = 0.01 | 0.7564
313 K, 101 kPa, x2 = 0.1 | 1.715
313 K, 101 kPa, x2 = 0.2 | 1.702
313 K, 101 kPa, x2 = 0.3 | 1.739
313 K, 101 kPa, x2 = 0.4 | 1.815
313 K, 101 kPa, x2 = 0.5 | 1.903
313 K, 101 kPa, x2 = 0.6 | 1.993
313 K, 101 kPa, x2 = 0.68 | 2.06
313 K, 101 kPa, x2 = 0.97 | 0.97
313 K, 101 kPa, x2 = 0.98 | 0.8638
323 K, 101 kPa, x1 = 0.01 | 0.622
323 K, 101 kPa, x2 = 0.1 | 1.28
323 K, 101 kPa, x2 = 0.2 | 1.28
323 K, 101 kPa, x2 = 0.3 | 1.312
323 K, 101 kPa, x2 = 0.4 | 1.364
323 K, 101 kPa, x2 = 0.5 | 1.427
323 K, 101 kPa, x2 = 0.6 | 1.492
323 K, 101 kPa, x2 = 0.68 | 1.541
323 K, 101 kPa, x2 = 0.97 | 0.773
323 K, 101 kPa, x2 = 0.98 | 0.6986
323.15 K, 100 kPa, x1 = 0.02 | 1.324
323.15 K, 100 kPa, x1 = 0.58 | 1.517

O=S1(=O)CCCC1 + CCc1ccccc1
viscosity [mPa·s]
Settings | 101 kPa | 101.3 kPa
303.15 K, x2 = 0.9106 | 0.7155 | 0.7155
313.15 K, x2 = 0.7254 | 0.9235 | –
323.15 K, x2 = 0.7254 | 0.8125 | 0.8125
323.15 K, x2 = 0.8194 | 0.6653 | 0.6653

O=S1(=O)CCCC1 + OCCO
303.15 K, 101 kPa
Settings | viscosity [mPa·s]
x1 = 0.0503 | 11.92
x1 = 0.0993 | 10.75
x1 = 0.2006 | 8.926
x1 = 0.2984 | 7.669
x1 = 0.393 | 6.857
x1 = 0.4553 | 6.555
x1 = 0.5015 | 6.443
x1 = 0.5484 | 6.443
x1 = 0.6038 | 6.548
x1 = 0.7048 | 7.013
x1 = 0.8065 | 7.683
x1 = 0.9034 | 8.532
x1 = 0.9426 | 9.018

O=S1(=O)CCCC1 + Cc1ccc(C)cc1
viscosity
Settings | x2 = 0.1118 | x2 = 0.2206 | x2 = 0.3266 | x2 = 0.4301 | x2 = 0.531 | x2 = 0.6293 | x2 = 0.7252 | x2 = 0.8191 | x2 = 0.9106
303.15 K, 101 kPa | 6.156 mPa·s and 6.156 mPa·s | 4.093 mPa·s and 4.093 mPa·s | 2.887 mPa·s and 2.887 mPa·s | 2.143 mPa·s and 2.143 mPa·s | 1.608 mPa·s and 1.608 mPa·s | 1.253 mPa·s and 1.253 mPa·s | 0.989 mPa·s and 0.9893 mPa·s | 0.812 mPa·s and 0.8122 mPa·s | 0.673 mPa·s and 0.6727 mPa·s
303.15 K, 101.3 kPa | 6.156 mPa·s | 4.093 mPa·s | 2.887 mPa·s | 2.143 mPa·s | 1.608 mPa·s | 1.253 mPa·s | 0.9893 mPa·s | 0.8122 mPa·s | 0.6727 mPa·s
313.15 K, 101 kPa | 4.883 mPa·s | 3.341 mPa·s | 2.384 mPa·s | 1.791 mPa·s | 1.351 mPa·s | 1.066 mPa·s | 0.8516 mPa·s | 0.7111 mPa·s | 0.5929 mPa·s
323.15 K, 101 kPa | 3.964 mPa·s and 3.964 mPa·s | 2.74 mPa·s and 2.74 mPa·s | 2 mPa·s and 2 mPa·s | 1.526 mPa·s and 1.526 mPa·s | 1.166 mPa·s and 1.166 mPa·s | 0.925 mPa·s and 0.9254 mPa·s | 0.747 mPa·s and 0.7473 mPa·s | 0.627 mPa·s and 0.6269 mPa·s | 0.53 mPa·s and 0.53 mPa·s
323.15 K, 101.3 kPa | 3.964 mPa·s | 2.74 mPa·s | 2 mPa·s | 1.526 mPa·s | 1.166 mPa·s | 0.9254 mPa·s | 0.7473 mPa·s | 0.6269 mPa·s | 0.53 mPa·s
